How the values were obtained:
[1] = Creaming / visual shelf stability of emulsions (serum height); format: physicochemical; conditions: 10 wt % oil; for ability of the oil to yield stable emulsions: 1 wt % drug; for time to begin creaming: emulsions of 1 wt % propofol, 1 wt % Pluronic F68
Procedure: About 10 mL of each emulsion was placed in a 20 mL vial and left undisturbed on a lab bench to explore each emulsion's stability to creaming. Creaming is an instability mechanism where lower density oil droplets rise to the top of the system forming a cream layer with a more clear serum layer below. The emulsions were photographed periodically with a digital camera (Panasonic DMC FH25), and the photographs were analyzed using image processing software (ImageJ) to quantify the degree of creaming. The height of each emulsion phase was measured in number of pixels, and the percentage serum was calculated from the serum height divided by the total emulsion height. The time at which creaming was first observed was used as a measure of each emulsion's stability, and the time at which the emulsion had completely creamed was noted if applicable. A creaming time longer than two years is desired to be considered a commercially viable pharmaceutical emulsion.
Preliminary screening of emulsion stability was conducted by leaving emulsions undisturbed on a shelf and making visual observations at various times. The initial images of the two formulations for each of the five excipient oils are included in the top row of FIG. 3.
Images of the emulsions were digitally measured to determine the serum height as a function of time for all the emulsion systems (FIG. 3). A stable system should not separate into cream and serum phases, so the time at which serum is first observed is considered to be an approximate indicator of the degree of stability.

[2] = Oil-water partitioning of propofol in equilibrated bulk excipient oil/water mixtures; format: physicochemical; conditions: for Cfree: propofol in aqueous phase, 1 wt % drug
Procedure: Oil-water partition coefficients were calculated by equilibrating a mixture of propofol, water, and oil with mass fractions fdrug, faq, and foil, respectively. The drug loading was kept constant at 1 wt %, while oil loadings were chosen to be 5 or 15 wt %. Additional experiments were performed at 10 wt % excipient oil loading for ethyl butyrate and soybean oil because of the major focus on these oils in this work. The water phase was separated and assayed for propofol concentration (cf), and the partition coefficient was obtained from a mass balance, i.e., Mdrug=Vaqcf+KVoilcf (2) where K is the oil-water partition coefficient, Mdrug, Vaq and Voil are the […] and volumes of water and oil, respectively in the system. The mass balance yields the following equation for K:
[formula] where ρaq and ρoil are the densities of water and oil, respectively. Table 2 lists the molecular weight and densities of various oils considered, along with measured aqueous phase drug concentrations and calculated logarithmic oil-water partition coefficients.

[3] = Propofol partitioning in binary mixtures of excipient oils
Procedure: Experiments were performed to measure the drug partitioning of binary mixtures of excipient oils. 1 wt % drug loading and 10 wt % total excipient oil loading were maintained as the experimental basis of all the binary systems formed to compare with Diprivan. The relative fractions of excipient oil were varied between 100 wt % ethyl butyrate and 100 wt % soybean oil. […] These experiments were repeated by replacing soybean oil with olive oil.

[4] = cited from earlier work
[5] = oil-water partition coefficient of propofol, 5% excipient oil
[6] = oil-water partition coefficient of propofol, 15% excipient oil

## CCCCCCCC(=O)O [Octanoic acid (OA), Octanoic acid]
[1]
  ability of the oil to yield stable emulsions: did not yield stable emulsions
[2]; [5]
  Log10K: 3.65
[2]; [6]
  Log10K: 3.76
[2]; 5% excipient oil
  Cfree: 33.5 mg/L
[2]; 15% excipient oil
  Cfree: 10.0 mg/L

## CCCC(=O)OCC [Ethyl butyrate (EB), Ethyl butyrate]
[1]
  ability of the oil to yield stable emulsions: did not yield stable emulsions
[2]; oil-water partition coefficient of propofol
  log(K): 4.3
[2]; [5]
  Log10K: 4.33
[2]; oil-water partition coefficient of propofol, 10% excipient oil
  Log10K: 4.32
[2]; [6]
  Log10K: 4.35
[2]; 5% excipient oil
  Cfree: 6.93 mg/L
[2]; 10% excipient oil
  Cfree: 4.60 ± 1.83 mg/L
[2]; 15% excipient oil
  Cfree: 2.48 mg/L
[3]
  partition coefficient of propofol compared to soybean oil: about 4 fold

## CCCCCCCCCCCCCCCCCC(=O)O [stearic acid]
[4]
  pKa: about 4.9

## CCCCCCCCCCCCCCCC(=O)OC(C)C [Isopropyl palmitate (IP), Isopropyl palmitate]
[1]
  ability of the oil to yield stable emulsions: did not yield stable emulsions
  time to begin creaming: several days or weeks
[2]; [5]
  Log10K: 3.71
[2]; [6]
  Log10K: 4.01
[2]; 5% excipient oil
  Cfree: 28.1 mg/L
[2]; 15% excipient oil
  Cfree: 5.17 mg/L

## CCCCCCCCCCCCCC(=O)OC(C)C [Isopropyl myristate (IM), Isopropyl myristate]
[1]
  ability of the oil to yield stable emulsions: did not yield stable emulsions
  time to begin creaming: several days or weeks
[2]; [5]
  Log10K: 3.92
[2]; [6]
  Log10K: 4.08
[2]; 5% excipient oil
  Cfree: 16.9 mg/L
[2]; 15% excipient oil
  Cfree: 4.39 mg/L

Source: US11963936B2, “Method of manufacturing stable emulsions and compositions containing the same” (UNIVERSITY OF FLORIDA RESEARCH FOUNDATION, INC., priority 2013, dated 2024)
